Laboratory results: patent US10781224B2, “Bis(oxymethyl)phosphinic acid and biogenic metal salts thereof as regulators of plant growth and development” (priority 2016, dated 2020)

Assays:
rice (Diamant variety) [1] = assay: Rice seed treatment with BHMPA salts: germination energy and germination rate; assay type: in vivo
Method: Control—Soaking Seeds in Water;
(§1) Experimental versions—soaking seeds in BHMPA solutions and solutions of BHMPA Ca, Mg, Na, Co, Mn, Cu, and Zn salts at 1·10^−6-1·10^−12% concentrations (doses). The studies were conducted in laboratory in Petri dishes; seed bed—two layers of filter paper. 50 seeds soaked in water (control) and in the solutions of the tested compounds (experimental) were placed into each dish. Wheat, corn, and rice seeds were exposed for one hour.
Analysis was conducted according to the government standards GOST 12038-84 “Crop seeds. Technical conditions for determining the germination energy and germination rate”, GOST 12044-93 “Crop seeds. Methods for determining disease contamination.”
(§2) Seed germination energy and rate were calculated in percent as an arithmetic mean of the four experimental results (germination energy on the 4th day, wheat germination on the 8th day, rice and corn germination—on the 7th day). Germination was determined based on the germinating power indicators (length of the roots and sprouts and their wet and dry mass per 100 shoots).
(§3) The effect of pre-sowing seed treatment with the claimed BHMPA salts of biogenic metals was studied on winter wheat (Vershin variety), corn (Krasnodar 385 MV variety), and rice (Diamant variety).

rice (Diamant variety) [2] = assay: Rice seed treatment with BHMPA salts: germinating power; assay type: in vivo
Method: as §1, §2, §3
The above data describe the seed viability only at the initial stage of germination, while the germination ability at the later stage of germination is defined by the initial germinating power. The method for the determination of the germinating power comprises measuring the height of the sprouts and primary roots, as well as the biomass and the dry mass thereof per 100 seedlings. [M. A. Kartuzova. Initial Germinating Power as Method of Biological Assessment of Seed Quality. Selection and Seed Farming, #2, 1953].

[3] = rice seed treatment, solution 1 · 10^−9%
[4] = seed treatment, concentration 1 · 10^−6%
[5] = seed treatment, concentration 1 · 10^−7%
[6] = seed treatment, concentration 1 · 10^−8%
[7] = seed treatment, concentration 1 · 10^−9%
[8] = seed treatment, concentration 1 · 10^−10%
[9] = seed treatment, concentration 1 · 10^−11%
[10] = seed treatment, concentration 1 · 10^−12%
[11] = rice seed treatment, comparison with Melaphen (Table XXXIII), solution 1 · 10^−9%
[12] = rice seeds, solution concentration 1 · 10^−6%
[13] = rice seeds, solution concentration 1 · 10^−7%
[14] = rice seeds, solution concentration 1 · 10^−8%
[15] = rice seeds, solution concentration 1 · 10^−9%
[16] = rice seeds, solution concentration 1 · 10^−10%
[17] = rice seeds, solution concentration 1 · 10^−11%
[18] = rice seeds, solution concentration 1 · 10^−12%
[19] = rice, vs control, 1·10^−9% solution

## O.O.O=P([O-])(CO)CO.O=P([O-])(CO)CO.[Co+2] [Co-salt, Cobalt BHMPA Salt]
Rice (Diamant variety) [1]; [3]
  Germination energy, %: 87.5%
  Germination rate, %: 94.5%
Rice (Diamant variety) [1]; rice, 1·10^−9% solution
  Germination energy: 86.3%
  Germination rate: 93.7%
Rice (Diamant variety) [1]; [4]
  Germination energy: 80.7%
  Germination rate: 84.0%
Rice (Diamant variety) [1]; [5]
  Germination energy: 83.0%
  Germination rate: 87.0%
Rice (Diamant variety) [1]; [6]
  Germination energy: 84.0%
  Germination rate: 90.3%
Rice (Diamant variety) [1]; [7]
  Germination energy: 86.3%
  Germination rate: 93.7%
Rice (Diamant variety) [1]; [8]
  Germination energy: 85.7%
  Germination rate: 91.3%
Rice (Diamant variety) [1]; [9]
  Germination energy: 84.0%
  Germination rate: 88.0%
Rice (Diamant variety) [1]; [10]
  Germination energy: 81.3%
  Germination rate: 85.3%
Rice (Diamant variety) [2]; rice
  optimum concentration for treating rice seeds before sowing: 1·10^−9%
Rice (Diamant variety) [2]; [11]
  Length, root: 6.4 cm
  Length, root, + % to control: 33%
  Length, sprout: 3.7 cm
  Length, sprout, + % to control: 42%
  Mass, dry, root: 0.25 g/100 plantlings
  Mass, dry, root, + % to control: 19%
  Mass, dry, sprout: 0.28 g/100 plantlings
  Mass, dry, sprout, + % to control: 12%
  Mass, wet, root: 1.37 g/100 plantlings
  Mass, wet, root, + % to control: 40%
  Mass, wet, sprout: 2.28 g/100 plantlings
  Mass, wet, sprout, + % to control: 51%
Rice (Diamant variety) [2]; [12]
  Length, root: 5.1 cm
  Length, root, + % to control: 8.5%
  Length, sprout: 2.6 cm
  Length, sprout, + % to control: 13%
  Mass, dry, root: 0.19 g/100 plantlings
  Mass, dry, root, + % to control: 12%
  Mass, dry, sprout: 0.25 g/100 plantlings
  Mass, dry, sprout, + % to control: 25%
  Mass, wet, root: 0.89 g/100 plantlings
  Mass, wet, root, + % to control: 8.5%
  Mass, wet, sprout: 1.71 g/100 plantlings
  Mass, wet, sprout, + % to control: 15.5%
Rice (Diamant variety) [2]; [13]
  Length, root: 5.4 cm
  Length, root, + % to control: 15%
  Length, sprout: 2.9 cm
  Length, sprout, + % to control: 26%
  Mass, dry, root: 0.22 g/100 plantlings
  Mass, dry, root, + % to control: 29%
  Mass, dry, sprout: 0.28 g/100 plantlings
  Mass, dry, sprout, + % to control: 40%
  Mass, wet, root: 0.94 g/100 plantlings
  Mass, wet, root, + % to control: 15%
  Mass, wet, sprout: 1.80 g/100 plantlings
  Mass, wet, sprout, + % to control: 22%
Rice (Diamant variety) [2]; [14]
  Length, root: 5.7 cm
  Length, root, + % to control: 21%
  Length, sprout: 3.1 cm
  Length, sprout, + % to control: 35%
  Mass, dry, root: 0.24 g/100 plantlings
  Mass, dry, root, + % to control: 41%
  Mass, dry, sprout: 0.31 g/100 plantlings
  Mass, dry, sprout, + % to control: 55%
  Mass, wet, root: 1.07 g/100 plantlings
  Mass, wet, root, + % to control: 30%
  Mass, wet, sprout: 2.01 g/100 plantlings
  Mass, wet, sprout, + % to control: 36%
Rice (Diamant variety) [2]; [15]
  Length, root: 6.2 cm
  Length, root, + % to control: 32%
  Length, sprout: 3.5 cm
  Length, sprout, + % to control: 52%
  Mass, dry, root: 0.26 g/100 plantlings
  Mass, dry, root, + % to control: 53%
  Mass, dry, sprout: 0.35 g/100 plantlings
  Mass, dry, sprout, + % to control: 75%
  Mass, wet, root: 1.15 g/100 plantlings
  Mass, wet, root, + % to control: 40%
  Mass, wet, sprout: 2.09 g/100 plantlings
  Mass, wet, sprout, + % to control: 41%
Rice (Diamant variety) [2]; [16]
  Length, root: 5.8 cm
  Length, root, + % to control: 23%
  Length, sprout: 3.2 cm
  Length, sprout, + % to control: 39%
  Mass, dry, root: 0.23 g/100 plantlings
  Mass, dry, root, + % to control: 35%
  Mass, dry, sprout: 0.28 g/100 plantlings
  Mass, dry, sprout, + % to control: 40%
  Mass, wet, root: 1.03 g/100 plantlings
  Mass, wet, root, + % to control: 26%
  Mass, wet, sprout: 1.97 g/100 plantlings
  Mass, wet, sprout, + % to control: 33%
Rice (Diamant variety) [2]; [17]
  Length, root: 5.6 cm
  Length, root, + % to control: 19%
  Length, sprout: 2.8 cm
  Length, sprout, + % to control: 22%
  Mass, dry, root: 0.20 g/100 plantlings
  Mass, dry, root, + % to control: 18%
  Mass, dry, sprout: 0.26 g/100 plantlings
  Mass, dry, sprout, + % to control: 30%
  Mass, wet, root: 0.94 g/100 plantlings
  Mass, wet, root, + % to control: 15%
  Mass, wet, sprout: 1.89 g/100 plantlings
  Mass, wet, sprout, + % to control: 28%
Rice (Diamant variety) [2]; [18]
  Length, root: 5.2 cm
  Length, root, + % to control: 11%
  Length, sprout: 2.7 cm
  Length, sprout, + % to control: 17%
  Mass, dry, root: 0.19 g/100 plantlings
  Mass, dry, root, + % to control: 12%
  Mass, dry, sprout: 0.24 g/100 plantlings
  Mass, dry, sprout, + % to control: 20%
  Mass, wet, root: 0.88 g/100 plantlings
  Mass, wet, root, + % to control: 7%
  Mass, wet, sprout: 1.82 g/100 plantlings
  Mass, wet, sprout, + % to control: 23%
Rice (Diamant variety) [2]; [19]
  dry mass of the roots increased by: 53%
  dry mass of the sprouts increased by: 75%
  length of the root increased by: 32%
  length of the sprout increased by: 52%
  wet mass of the roots increased by: 40%
  wet mass of the sprouts increased by: 41%
